Data: patent US6589766B1, “Aldol consensations by catalytic antibodies” (The Scripps Research Institute, priority 1997, dated 2003)

Columns and labels:
[1] = cited from earlier work; for pKa of the amino group: free in aqueous solution / water
[2] = amine catalyzed retro-aldolization of 59 in aqueous buffer and n-octanol; format: biochemical
Description: Therefore the second order rate constants for n-butylamine and aminoacetonitrile catalyzed retro-aldolization of 59 where determined in aqueous buffer and n-octanol. […] The pka's of n-butylamine and aminoacetonitrile in water are 10.61 and 5.34 (Hupe, D. J.; Kendall, M. C. R.; Spencer, T. A. J. Am. Chem. Soc. 1972, 94, 1254). […] Antibody 38C2 provides a 106-108 fold enhancement of the efficiency of the retro-aldol reaction of 59 as compared to the non-enzymic amine catalyzed reactions in either aqueous or organic media. […] The effectiveness of the active site amine of 38C2 is also indicated by effective molarities between 560 and 35,000 M depending on the amine and solvent system studied.
The activation energy for this reaction should be […] in nonpolar solvents such as the active site of the antibody and n-octanol since the reaction involves charge dispersal in the transition state. A polar medium would be expected to stabilize the cationic iminium intermediates to a greater extent than the activated complex. (Reichardt, C., in Solvents and Solvents Effects in Organic Chemistry Ebel, H. F., Wentrup-Byne, E., Eds.; New York, N.Y., 1990, 2nd eddition, pp1-511; Heathcock, C. H. Stereoselective Aldol Condensations, in E. Buncel and T. Durst (eds): Comprehensive Carbanion Chemistry. Part B, P. 177ff. (particularly p. 198), Elsevier, Amsterdam 1984).

[3] = control aldol reactions using lysine or bovine serum albumin instead of the antibodies; format: biochemical; settings: used instead of the antibodies
Description: For ease of comparison we determined specific rates for these reactions under the following defined conditions: 1 M of donor, 500 mM of aldehyde 4 and 0.4 mol-% of antibody .

[4] = test system: aldolase antibodies 38C2 and 33F12; test: inhibition of antibody aldolase activity by β-diketones; format: biochemical
Description: For ease of comparison we determined specific rates for these reactions under the following defined conditions: 1 M of donor, 500 mM of aldehyde 4 and 0.4 mol-% of antibody . […] A large variety of other ketones were also studied with aldehyde 4 with monitoring of the consumption of 4 and appearance of a new peak tentatively assigned as the β-hydroxyketone product. The antibody catalyzed aldol reactions were inhibited by addition of equimolar amounts of the hapten 1 or 2,4-pentanedione. Further control experiments were carried out using lysine or bovine serum albumin instead of the antibodies. […] Further study of mixed solvent systems may allow conditions to be defined where substrates such as these are accepted by the catalyst. Of the ketones studied, reactions involving hydroxyacetone as the donor were the most efficient.
No background reaction for the overall conversion of cyclopentanone to 35 in the absence of antibody could be observed following extended incubation for 2 months.
The reaction of 3-methyl-2,4-pentanedione was monitored spectrophotometrically by following the absorption of the antibody-enamine complex 3 now at 335 nm. […] Study of the dependence of the rate of enamine formation on pH with 2,4-pentanedione yielded the same pKa.

| Molecule | pKa of the amino group [1] | catalysis of the aldol reactions [3] | pKa of the protons at the 3 position [1] | also measured |
| --- | --- | --- | --- | --- |
| CCCCN [n-butylamine] | 10.61 | – | – | catalysis in n-octanol compared to catalysis in aqueous solution [2]: 63 fold |
| NCCCC[C@H](N)C(=O)O [lysine] | around 10.5 | No catalysis | – | – |
| bovine serum albumin: control protein used instead of the antibodies | – | No catalysis | – | – |
| CC(=O)CC(C)=O [2,4-pentanedione] | – | – | 8.87 | inhibition of ab 38C2 catalyzed elimination ([4]; elimination from 36 to 35): inhibited; inhibition of antibody catalyzed aldol reactions ([4]; equimolar amounts): inhibited |
| N#CCN [aminoacetonitrile] | 5.34 | – | – | – |
| CC(=O)C(C)C(C)=O [3-methyl-2,4-pentanedione] | – | – | 10.65 | inhibition of aldolase activity ([4]; stoichiometric reaction forming stable vinylogous amides): completely inhibiting aldolase activity |
